# Laboratory results taken from patent publication US20140221372A1, “METHOD OF ADMINISTRATION AND TREATMENT” (GlaxoSmithKline Intellectual Property (NO 2.) Limited, priority 2013, published 2014).
# Several values for one entry are separate records, joined by “and”; a condition that tells them apart may be missing. Equal values may be shown once.
# Assays:
# Format in all cases: in vivo, human
# sMET = test: Circulating sMET level, percent change from baseline (Meso Scale Discovery Platform); conditions: Day 8, 30 mg/daily
# Experimental: (§1) Blood was collected at baseline (Day 1) and post treatment with 30 mg/daily of foretinib on Days 8, 15, and 22. CAF (Cytokine and Angiogenic Factor) levels were determined. CAF levels were determined by using the Searchlight platform (Aushon Biosciences). Levels of circulating sMET and HGF were determined using Meso Scale Discovery Platform (Don Bottaro, National Cancer Institute [NCI]). The biomarker analysis population was predefined to include patients who met the following criteria: • Patient is in a 30 mg cohort. • Pharmacodynamic (PD)-sample data available at baseline and for at least 1 post-baseline timepoint, and • Patient received at least 75% of planned doses up to time of last PD sample. CAF percent changes from baseline were assessed for each CAF, at each time point, for available data in the biomarker population, using the Wilcoxon Signed Rank Test.
# [1] = test system: CAF (Cytokine and Angiogenic Factor) levels; test: Circulating pharmacodynamic markers: CAF time course, percent change from baseline (Searchlight platform)
# Experimental: as §1
# [2] = test system: hepatocellular carcinoma patients; test: Association between baseline (Day 1) CAF levels and TTP / OS in patients on foretinib
# Experimental: Blood was collected at baseline (Day 1) and post treatment with 30 mg/daily of foretinib on Days 8, 15, and 22. CAF (Cytokine and Angiogenic Factor) levels were determined. CAF levels were determined by using the Searchlight platform (Aushon Biosciences). Levels of circulating sMET and HGF were determined using Meso Scale Discovery Platform (Don Bottaro, National Cancer Institute [NCI]).
# The biomarker analysis population was predefined to include patients who met the following criteria: • Patient is in a 30 mg cohort. • Pharmacodynamic (PD)-sample data available at baseline and for at least 1 post-baseline timepoint, and • Patient received at least 75% of planned doses up to time of last PD sample.
# Association between day 1 CAF levels and TTP was assessed using univariate and multivariate (covariate adjusted) proportional hazards regression analysis. CAF data were transformed (log2) where appropriate.
# Association between day 1 CAF levels and OS was assessed using univariate and multivariate (covariate adjusted) proportional hazards regression analysis. CAF data were transformed (log2) where appropriate. For statistically significant CAF's in the OS statistical models, a combined model of the significant CAF's will be explored, in which an optimal predictive combination of the CAF's (including optimal cutoffs) will be investigated. The method employed to explore the CAF's will depend upon the number of significant CAF's, and will be described in the results section.
# [3] = test system: hepatocellular cancer (HCC) subjects; test: Pharmacogenetic analysis: association of genetic variants with TTP and OS in Asian HCC subjects receiving foretinib; conditions: foretinib 30 mg QD; for Median TTP: (95% CI)
# Experimental: Asian HCC subjects treated with the maximum tolerated dose (MTD) of 30 mg QD and provided informed consent and blood sample for PGx research (n=31 of 39 subjects treated) were selected for PGx analysis. Of the 31 subjects who provided consent, 28 subjects were evaluable for objective response rate (ORR) and 30 for time to progression (TTP) and overall survival (OS).
# Venous blood was collected from each PGx consented subject into an ethylenediaminetetraacetic acid (EDTA) vacutainer for PGx analysis. DNA was extracted using the Qiagen Autopure automated DNA extraction by Covance (Indianapolis, Ind., USA) and was genotyped for 20 single nucleotide polymorphisms (SNPs) with potential functional consequence from 13 candidate genes. The list of the genetic variants including their unique identifier (rs ID) and allele frequency in Asian population is included in Table 1. Genotyping of the SNPs was done via Sanger sequencing, or using custom TaqMan® SNP genotyping assays (Applied Biosystems, Foster City, Calif., USA) internally at GlaxoSmithKline or via TaqMan® custom or Assay on Demand genotyping assays (Applied Biosystems, Foster City, Calif., USA) by Gen-Probe (Wythenshawe, Manchester, UK).
# Association with ORR was evaluated using Fisher's Exact Test (FET). Association with TTP and OS was tested using time-to-event (progression) models, using the Score (log rank) test. Since one of the haplotypes CAT (a unique combination of ‘C’, ‘A’, and ‘T’ alleles of SNPs—rs2307424, rs2307418, and rs4073054, respectively) in gene NR1I3/CAR (nuclear receptor subfamily 1, group I, member 3/constitutive androstane receptor) was previously reported to be associated with worse progression-free survival in sunitinib-treated renal cell carcinoma subjects (Van der Veldt 2011), the 3 SNPs in NR1I3 (were analyzed separately and together as a haplotype for association with clinical endpoints (see Tables 1 and 2). Similarly, the 3 SNPs in ABCB1 (ATP-binding cassette, subfamily B, member 1) were also analyzed separately and together as a haplotype.
# Because of the limited sample size of the study, genetic analyses were performed without adjustment for baseline demographics or potential covariates, and p-values were not adjusted for multiple testing.
smiles,measurement,setting,value
COc1cc2c(Oc3ccc(NC(=O)C4(C(=O)Nc5ccc(F)cc5)CC4)cc3F)ccnc2cc1OCCCN1CCOCC1 [foretinib],sMET Percent Change from baseline,sMET,12%
same,Clusterin Percent Change from baseline,"[1]; Day 8, 30 mg/daily",25%
same,FASL Percent Change from baseline,"[1]; Day 8, 30 mg/daily",26%
same,GCSF Percent Change from baseline,"[1]; Day 8, 30 mg/daily",46%
same,IGFBP3 Percent Change from baseline,"[1]; Day 8, 30 mg/daily",19%
same,IL6 Percent Change from baseline,"[1]; Day 8, 30 mg/daily",58%
same,PLGF Percent Change from baseline,"[1]; Day 8, 30 mg/daily",105%
same,TRAIL Percent Change from baseline,"[1]; Day 8, 30 mg/daily",25%
same,TSP2 Percent Change from baseline,"[1]; Day 8, 30 mg/daily",−14%
same,VCAM1 Percent Change from baseline,"[1]; Day 8, 30 mg/daily",28%
same,VEGF Percent Change from baseline,"[1]; Day 8, 30 mg/daily",61%
same,ANG2 Percent Change from baseline,"[1]; Day 15, 30 mg/daily",−24%
same,FASL Percent Change from baseline,"[1]; Day 15, 30 mg/daily",20%
same,IGFBP3 Percent Change from baseline,"[1]; Day 15, 30 mg/daily",13%
same,IL6 Percent Change from baseline,"[1]; Day 15, 30 mg/daily",124%
same,IL8 Percent Change from baseline,"[1]; Day 15, 30 mg/daily",20%
same,PLGF Percent Change from baseline,"[1]; Day 15, 30 mg/daily",130%
same,SCF Percent Change from baseline,"[1]; Day 15, 30 mg/daily",−14%
same,TRAIL Percent Change from baseline,"[1]; Day 15, 30 mg/daily",17%
same,TSP2 Percent Change from baseline,"[1]; Day 15, 30 mg/daily",−19%
same,VCAM1 Percent Change from baseline,"[1]; Day 15, 30 mg/daily",43%
same,VEGF Percent Change from baseline,"[1]; Day 15, 30 mg/daily",83%
same,VEGFR2 Percent Change from baseline,"[1]; Day 15, 30 mg/daily",−21%
same,ANG2 Percent Change from baseline,"[1]; Day 22, 30 mg/daily",−17%
same,Clusterin Percent Change from baseline,"[1]; Day 22, 30 mg/daily",23%
same,FASL Percent Change from baseline,"[1]; Day 22, 30 mg/daily",44%
same,IGFBP3 Percent Change from baseline,"[1]; Day 22, 30 mg/daily",17%
same,IL6 Percent Change from baseline,"[1]; Day 22, 30 mg/daily",111%
same,PLGF Percent Change from baseline,"[1]; Day 22, 30 mg/daily",120%
same,TRAIL Percent Change from baseline,"[1]; Day 22, 30 mg/daily",24%
same,VCAM1 Percent Change from baseline,"[1]; Day 22, 30 mg/daily",64%
same,VEGF Percent Change from baseline,"[1]; Day 22, 30 mg/daily",83%
same,VEGFR2 Percent Change from baseline,"[1]; Day 22, 30 mg/daily",−21%
same,"longer TTP, lower vs higher levels of IL6","[2]; median split of baseline IL6 levels, 30 mg cohort",~6.7 month
same,deaths,[2]; patients in the highest quartile of baseline IL6,10/10
same,deaths,[2]; patients in the highest quartile of baseline IL8,9/10
same,deaths,[2]; patients in the lowest quartiles of baseline IL6 and IL8 (all patients censored),0/9
same,TTP,"[2]; patients with higher baseline levels of IL6 (median split), 30 mg cohort",2.9 months
same,TTP,"[2]; patients with lower baseline levels of IL6 (median split), 30 mg cohort",9.6 months
same,median survival,[2]; patients with unfavorable levels of IL6 and IL8 (group 1 in FIG. 6),6 months
same,Median TTP,[3]; ABCB1 rs1045642 TC or TT genotype,8 months and 8.21 (2.17-NE) months
same,median OS,[3]; NR1I3 CAT/CAT,5.9 months
same,Median TTP,"[3]; NR1I3 CAT/− or −/− (1 or no copy, other haplotypes)",6.21 (2.96-NE) months
same,Median TTP,[3]; NR1I3 haplotype CAT/CAT (2 copies),1.92 (1.51-NE*) months
same,median OS,[3]; NR1I3 other haplotypes,8.5 months
